Legend:
[1] = tested on: cardiomyocytes isolated from hearts of heart failure (HF) mice; test: Cardiomyocyte contractility (fractional shortening, % FS), heart failure (MI) cardiomyocytes; type: cell-based, mouse; conditions: antagonist 3 μM before AC01/HM01 1 μM
Experimental: (§1) Cardiomyocytes were isolated freshly from cardiac ventricles separately from SHAM and HF mice following the protocol developed by the Alliance for Cellular Signalling (AfCS Procedure Protocol ID PP00000125). From each of the 5 SHAM and 3 HF hearts a cell suspension was made and divided into 10 aliquots each, for a total of 50 aliquots from SHAM and 30 aliquots from HF hearts. These aliquots were treated with vehicle, AC01/HM01 or D-Lys3-GHPR-6+AC01/HM01 as stated and used for the subsequent physiological and biochemical experiments.
AC01/HM01 was suspended in phosphate buffer saline solution (PBS: in mM: NaCl 137, KCl 7, Na2HPO4 10, KH2PO4 […]) and diluted to obtain 3 different concentrations: 0.2, 0.5 or 1 μM in Tyrode solution. We used a concentration range within 0.2-1 μM to ensure that the receptor was activated. […]
(§2) Line scan fluorescence images were acquired using a confocal microscope (Biorad; 40× oil immersion lenses). […] ImageJ software (open source software developed by NIH, Bethesda, USA) was used to quantify changes in fluorescence (Ca^2+ transients) and contractility of single cardiomyocytes.
(§3) The contractility of cardiomyocytes was measured as the percent of length shortening (fractional shortening; % FS). […]

[2] = tested on: phospho (Ser 22-23) cardiac troponin I (cTnl); test: Phospho (Ser 22-23) cTnl western blot in cardiomyocytes; type: cell-based, mouse; conditions: SHAM cardiomyocytes, antagonist 3 μM before AC01/HM01 1 μM
Experimental: (§4) AC01/HM01 was suspended in phosphate buffer saline solution (PBS: in mM: NaCl 137, KCl 7, Na2HPO4 10, KH2PO4 […]) and diluted to obtain 3 different concentrations: 0.2, 0.5 or 1 μM in Tyrode solution. We used a concentration range within 0.2-1 μM to ensure that the receptor was activated. […] Prior to contractility and Ca^2+ signaling measurements and biochemical assays, cardiomyocyte suspensions from SHAM and HF hearts were randomized to 3 types of treatments: vehicle, AC01/HM01, or D-Lys3-GHPR-6+AC01/HM01. The treatment with different agents occurred for 15 minutes at room temperature. Some cell suspension aliquots were flash frozen in liquid N2 and stored at −80° C. for later biochemistry analyses. All the experiments were conducted blinded regarding the treatment of cardiomyocytes.
Aliquots of frozen cardiomyocyte suspensions were lysed using NP40 buffer (Thermo Fisher FNN0021, Stockholm, Sweden) supplemented with phosphatase inhibitors (Sigma-Aldrich P2850-1ML, P5726-1ML, Stockholm, Sweden). Protein lysates were separated by electrophoresis and transferred onto membranes. Membranes were incubated with primary antibody: rabbit anti phospho (Ser 22-23) cardiac troponin I (cTnl, Cell Signalling, Leiden, The Netherlands #4004S) and rabbit anti-cTnl (Cell Signalling #4002S, Leiden, The Netherlands). Thereafter, infrared-labelled secondary antibodies (IRDye 680 and IRDye 800, 1:5000, Licor) were used. Immunoreactive bands were analyzed using the Odyssey Infrared Imaging System (Li-Cor, Bad Homburg, Germany). Band densities were quantified with Image J (NIH, Bethesda, USA), normalized to total cTnl and final data was expressed as fold increase compared to bands representing protein extracted from vehicle treated cells.

Protein kinase A (PKA) = test: PKA activity assay in cardiomyocytes (ELISA-based kit); type: cell-based, mouse; conditions: isolated cardiomyocytes, pretreatment before AC01/HM01 1 μM
Experimental: as §4
Elisa-based PKA kinase activity assay kit (ab139435, Abcam, Cambridge, UK) was employed to determine PKA activity in cardiomyocytes. Aliquots of frozen cardiomyocytes were thawed and mixed with a lysis buffer containing (mM) the following: 20 MOPS, 50 β-glycerolphosphate, 5 EGTA, 2 EDTA, 1 benzamidine, 1 sodium orthovanadate, 1% NP40, 1 DTT, complete protease inhibitor cocktail (Roche Diagnostics, West Sussex, UK) and phosphatase inhibitor cocktail 3 (Sigma, Gillingham, UK). Approximately 2 μg of protein of each sample were assayed according to the manufacturer's instructions 27.

[3] = tested on: cardiomyocytes isolated from hearts of SHAM mice; test: Cardiomyocyte contractility (fractional shortening, % FS), SHAM cardiomyocytes; type: cell-based, mouse; conditions: antagonist 3 μM before AC01/HM01 1 μM
Experimental: as §1, §4
Fresh isolated cardiomyocytes were aliquoted in 1.5 mL tubes and incubated with a cell permeable form of the fluorescent Ca^2+ indicator Fluo-3 AM for approximately 20 minutes followed by washing for >5 min. The cells were plated on laminin coated glass bottom dishes (35 mm, Mattek, Ashland, MA, USA), and then mounted in a custom built perfusion/stimulation chamber. Cells were continuously perfused with O2/CO2 (95/5%) bubbled Tyrode solution with the following composition (in mM): NaCl 121, KCl 5.0, CaCl2 1.8, MgCl2 0.5, NaH2PO4 0.4, NaHCO3 24, EDTA 0.1, glucose 5.5, which represents the vehicle solution.
15 aliquots of cardiomyocyte suspension from SHAM and 9 aliquots from HF were randomized to different treatments: vehicle, AC01/HM01 (0.2, 0.5 or 1 μM) or pretreatment with D-Lys3-GHPR-6 (3 μM) followed by AC01/HM01 (1 μM). The cardiomyocytes were electrically stimulated to contract at 1 Hz with supra-threshold voltage using two platinum electrodes attached to the perfusion/stimulation chamber.
as §2, §3

ghrelin receptor = ghrelin receptor (Homo sapiens, UniProt Q92847); conditions: ghrelin receptor antagonist; Sigma Aldrich; read-out: IC50 for antagonistic activity; cited from earlier work
ghrelin receptor, sequence (Q92847 whole entry, species assumed): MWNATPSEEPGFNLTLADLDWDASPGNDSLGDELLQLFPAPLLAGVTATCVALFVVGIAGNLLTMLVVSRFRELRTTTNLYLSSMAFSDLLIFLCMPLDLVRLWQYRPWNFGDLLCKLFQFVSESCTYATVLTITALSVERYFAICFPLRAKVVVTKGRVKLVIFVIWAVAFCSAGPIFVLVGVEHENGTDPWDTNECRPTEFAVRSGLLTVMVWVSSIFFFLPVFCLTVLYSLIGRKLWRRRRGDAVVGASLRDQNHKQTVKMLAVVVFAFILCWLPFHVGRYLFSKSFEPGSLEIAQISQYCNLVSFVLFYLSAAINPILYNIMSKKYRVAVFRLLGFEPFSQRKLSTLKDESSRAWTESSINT

Question: With D-Lys 3 GHRP-6 [reference compound] as the substance, how does the “effect of pretreatment on contractile effect of AC01/HM01” value [1] read?
Answer: blocked the contractile effect

Question: And the “effect of pretreatment on AC01/HM01-induced change of cTnl phosphorylation” value ([2]; listed as D-Lys3)?
Answer: blocked this effect

Question: What about the “effect of pretreatment on AC01/HM01-induced change of cTnl phosphorylation” value ([2]; listed as D-Lys3—GHRP-6) of the same substance?
Answer: restored the phosphorylation levels of cTnl to physiologic levels

Question: What about the “effect of pretreatment on AC01/HM01-induced change of PKA activity” value (Protein kinase A (PKA); listed as D-Lys 3) of the same substance?
Answer: blocked

Question: What about the “effect of pretreatment on AC01/HM01-induced change of PKA activity” value (Protein kinase A (PKA); listed as D-Lys 3-GHRP-6) of the same substance?
Answer: restored the PKA activity to physiologic levels

Question: What about the “effect of pretreatment on contractile effect of AC01/HM01” value [3] of the same substance?
Answer: blocked the contractile effect

Question: And the IC50 (ghrelin receptor)?
Answer: 900 nM

— patent US12648941B2, “Piperidine urea derivatives for use as inotropic agents” (Helsinn Healthcare SA, priority 2021, dated 2026)
